From patent US8952024B2, “Herbicidal pyrimidone derivatives” (E I du Pont de Nemours and Company, priority 2009, dated 2015)

Key:
Assay in all cases: Test D pre-/postemergence plant response
Format in all cases: in vivo
Conditions in all cases: Postemergence
kochia (Kochia scoparia) = system: kochia (Kochia scoparia)
How it was run: (§1)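 Seeds were sown in a loam–sand blend and sprayed preemergence with compound in a non-phytotoxic solvent mixture containing surfactant; plants at 2–18 cm (1- to 4-leaf stage) received the same formulation postemergence. After 14 to 21 days in a greenhouse, injury was rated visually against untreated controls (0 = no effect, 100 = complete control).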

[1] = system: sowthistle (common sowthistle, Sonchus oleraceous)
How it was run: as §1

[2] = system: green foxtail (Setaria viridis)
How it was run: as §1

[3] = system: spanishneedles (Bidens bipinnata)
How it was run: as §1

[4] = 125 g ai/ha, scale 0 to 100 (0 no effect, 100 complete control)
[5] = 62 g ai/ha, scale 0 to 100 (0 no effect, 100 complete control)
[6] = 250 g ai/ha, scale 0 to 100 (0 no effect, 100 complete control)

Row | Compound | Plant response rating, Kochia (kochia (Kochia scoparia); [4]) | Plant response rating, Sowthistle [1, 4] | Plant response rating, Foxtail, Green [2, 4] | Plant response rating, Spanishneedles [3, 4] | Plant response rating, Kochia (kochia (Kochia scoparia); 31 g ai/ha, scale 0 to 100) | Plant response rating, Kochia (kochia (Kochia scoparia); [5]) | Plant response rating, Kochia (kochia (Kochia scoparia); [6]) | Plant response rating, Sowthistle ([1]; 31 g ai/ha, scale 0 to 100) | Plant response rating, Sowthistle [1, 5] | Plant response rating, Sowthistle [1, 6] | Plant response rating, Foxtail, Green ([2]; 31 g ai/ha, scale 0 to 100) | Plant response rating, Foxtail, Green [2, 5] | Plant response rating, Foxtail, Green [2, 6] | Plant response rating, Spanishneedles ([3]; 31 g ai/ha, scale 0 to 100) | Plant response rating, Spanishneedles [3, 5] | Plant response rating, Spanishneedles [3, 6]
1 | COCCn1c(-c2ccsc2)ncc(C(=O)C2=C(O)C3CCC(C3)C2=O)c1=O (stereo not shown) [Compound 228] | 75 | 98 | 80 | 70 | – | – | – | – | – | – | – | – | – | – | – | –
2 | COCCn1c(-c2cccc(F)c2)ncc(C(=O)C2=C(O)C3CCC(C3)C2=O)c1=O (stereo not shown) [Compound 235] | 70 | 98 | 98 | 80 | 20 | 60 | 85 | 98 | 98 | 98 | 70 | 95 | 98 | 65 | 70 | 85
3 | COCCCn1c(-c2cccc(F)c2)ncc(C(=O)C2=C(O)C3CCC(C3)C2=O)c1=O (stereo not shown) [Compound 238] | 65 | 95 | 80 | 70 | 20 | 50 | 75 | 95 | 95 | 95 | 75 | 80 | 95 | 65 | 70 | 75
4 | CCCCn1c(-c2cc(F)cc(F)c2)ncc(C(=O)C2=C(O)C3CCC(C3)C2=O)c1=O (stereo not shown) [Compound 245] | 70 | 95 | 95 | 70 | 50 | 65 | 75 | 95 | 95 | 95 | 85 | 90 | 95 | 65 | 70 | 75
